Assay results reported in patent publication US12655184B2, “Labyrinthin-based peptides for cancer immunotherapies and uses thereof” (LABYRX IMMUNOLOGIC THERAPEUTICS (USA) LIMITED, priority 2018, dated 2026).
Ends that are not written are not given here.

Experiments:
Format in all cases: physicochemical
[1] = solubility in phosphate buffer with/without 0.9% NaCl, pH serially lowered with acetic acid, concentration remaining in solution
Method: In further solubility testing, two tubes of 1.1 mg peptide for each of the four candidate peptides target was dissolved into 1 mL phosphate buffer (pH 10) (with and without 0.9% NaCl). The peptide solutions were subsequently stored at 4° C. for several hours to dissolve the peptides thoroughly. Following centrifugation, the peptide concentration that remained in solution was measured. The solubility of all four peptide candidates under all tested condition in Table 6 as above 0.3 mg/mL, and for each peptide candidate the variability of solubility across the pH ranges tested was minimal.

[2] = solubility tests in DMSO, normal saline and 0.2 M NaCl by visual examination; conditions: for Solubility (dissolved Yes/No), 0.2M Sodium (NaCl): 0.2 M NaCl; for Solubility (dissolved Yes/No), 0.154M Sodium (NaCl): normal saline, 0.154 M NaCl
Method: Additional testing was completed to attempt to overcome the above-identified solubility issues. Results of the solubility tests performed for each labyrinthin-derived peptide candidate (SEQ ID NOS:29-32) are shown in Table 5. In short, all peptides were again dissolved in DMSO, confirming that the peptides had the capacity to dissolve in solution. Peptide solubility was then tested in normal saline (0.154 M sodium (NaCl)) and 0.2 M sodium (NaCl). Normal saline is generally an option as a solvent/diluent as use for such purpose is accepted by the […]. […] Additional solutions were tested to determine an alternative diluent to solubilize the candidate peptides, as determined by visual examination.

[3] = solubility by visual examination in ultrapure water, PBS and DMSO; conditions: for Solubility, PBS (pH 7.4): 0.1 M PBS pH 7.4, visual examination
Method: The solubility of each labyrinthin-derived peptide candidate was assessed by visual examination in ultrapure water, 0.1 M PBS (PBS; pH 7.4), and dimethyl sulfoxide (DMSO; analytical grade). As reported in Table 4, a solubility of less than 0.1 mg/mL of solvent was defined as “Undissolved” and solubility of greater than or 0.1 mg/mL was defined as “Dissolved.” The concentration range of measured solubility is provided under the “Dissolved” classification where available (Table 4).

[4] = pH 4, PBS with 0.9% NaCl, pH 4, read-out: Solubility pH 4
[5] = pH 4, PBS without NaCl, pH 4, read-out: Solubility pH 4
[6] = pH 5, PBS with 0.9% NaCl, pH 5, read-out: Solubility pH 5
[7] = pH 5, PBS without NaCl, pH 5, read-out: Solubility pH 5
[8] = pH 5.5, PBS with 0.9% NaCl, pH 5.5, read-out: Solubility pH 5.5
[9] = pH 5.5, PBS without NaCl, pH 5.5, read-out: Solubility pH 5.5
[10] = pH 6, PBS with 0.9% NaCl, pH 6, read-out: Solubility pH 6
[11] = pH 6, PBS without NaCl, pH 6, read-out: Solubility pH 6
[12] = pH 6.5, PBS with 0.9% NaCl, pH 6.5, read-out: Solubility pH 6.5
[13] = pH 6.5, PBS without NaCl, pH 6.5, read-out: Solubility pH 6.5
[14] = pH 7, PBS with 0.9% NaCl, pH 7, read-out: Solubility pH 7
[15] = pH 7, PBS without NaCl, pH 7, read-out: Solubility pH 7
[16] = pH 7.5, PBS with 0.9% NaCl, pH 7.5, read-out: Solubility pH 7.5
[17] = pH 7.5, PBS without NaCl, pH 7.5, read-out: Solubility pH 7.5
[18] = pH 8, PBS with 0.9% NaCl, pH 8, read-out: Solubility pH 8
[19] = pH 8, PBS without NaCl, pH 8, read-out: Solubility pH 8
[20] = pH 8.5, PBS with 0.9% NaCl, pH 8.5, read-out: Solubility pH 8.5
[21] = pH 8.5, PBS without NaCl, pH 8.5, read-out: Solubility pH 8.5
[22] = pH 9, PBS with 0.9% NaCl, pH 9, read-out: Solubility pH 9
[23] = pH 9, PBS without NaCl, pH 9, read-out: Solubility pH 9
[24] = pH 10, PBS with 0.9% NaCl, pH 10, read-out: Solubility pH 10
[25] = pH 10, PBS without NaCl, pH 10, read-out: Solubility pH 10
[26] = DMSO analytical grade, visual examination, read-out: Solubility, DMSO
[27] = pH 7.4, 0.1 M PBS pH 7.4, visual examination, read-out: Solubility, PBS (pH 7.4)
[28] = pH 7.4, 0.1 M PBS pH 7.4, read-out: concentration range of measured solubility, PBS (pH 7.4)
[29] = ultrapure water, visual examination, read-out: Solubility, Ultrapure water
[30] = DMSO, read-out: concentration range of measured solubility, DMSO
[31] = ultrapure water, visual examination

Row | solubility [1, 4] [µg/mL] | solubility [1, 5] [µg/mL] | solubility [1, 6] [µg/mL] | solubility [1, 7] [µg/mL] | solubility [1, 8] [µg/mL] | solubility [1, 9] [µg/mL] | solubility [1, 10] [µg/mL] | solubility [1, 11] [µg/mL] | solubility [1, 12] [µg/mL] | solubility [1, 13] [µg/mL] | solubility [1, 14] [µg/mL] | solubility [1, 15] [µg/mL] | solubility [1, 16] [µg/mL] | solubility [1, 17] [µg/mL] | solubility [1, 18] [µg/mL] | solubility [1, 19] [µg/mL] | solubility [1, 20] [µg/mL] | solubility [1, 21] [µg/mL] | solubility [1, 22] [µg/mL] | solubility [1, 23] [µg/mL] | further results | Sequence
1 | 687 | 731 | 694 | 738 | 695 | 738 | 695 | 742 | 706 | 753 | 701 | 748 | 703 | 757 | 707 | 756 | 702 | 762 | 707 | 757 | solubility [1, 24]: 708 µg/mL; solubility [1, 25]: 765 µg/mL; Solubility (dissolved Yes/No), 0.2M Sodium (NaCl) [2]: Yes; Solubility (dissolved Yes/No), DMSO [2]: Yes; Solubility (dissolved Yes/No), 0.154M Sodium (NaCl) [2]: Yes; solubility [3, 26]: > 100 µg/mL; solubility [3, 27]: > 100 µg/mL; solubility [3, 28]: ≤ 10000 µg/mL; solubility [3, 29]: > 100 µg/mL; solubility ([3]; ultrapure water, read-out: concentration range of measured solubility, Ultrapure water): ≤ 10000 µg/mL | GEDLQQEDGPTGEPQQEDDEFL [SEQ ID NO: 29]
2 | 806 | 777 | 813 | 802 | 826 | 819 | 833 | 773 | 831 | 769 | 838 | 825 | 852 | 812 | 861 | 847 | 848 | 854 | 866 | 857 | solubility [1, 24]: 881 µg/mL; solubility [1, 25]: 849 µg/mL; Solubility (dissolved Yes/No), 0.2M Sodium (NaCl) [2]: Yes; Solubility (dissolved Yes/No), DMSO [2]: Yes; Solubility (dissolved Yes/No), 0.154M Sodium (NaCl) [2]: No; Solubility (dissolved Yes/No), 0.154M Sodium (NaCl) ([2]; listed as SEQ ID NO:31): did not dissolve; Solubility, PBS (pH 7.4) [3]: did not improve solubility; solubility [3, 26]: > 100 µg/mL; solubility [3, 30]: ≤ 5000 µg/mL; solubility [3, 27]: < 100 µg/mL; Solubility, Ultrapure water [3, 31]: undissolved; solubility [3, 29]: < 100 µg/mL | NEGIEITEVTAPPEDNPVEDSQ [SEQ ID NO: 31]
3 | 496 | 647 | 510 | 669 | 510 | 667 | 529 | 674 | 498 | 673 | 539 | 710 | 555 | 712 | 542 | 720 | 540 | 730 | 548 | 738 | solubility [1, 24]: 552 µg/mL; solubility [1, 25]: 726 µg/mL; Solubility (dissolved Yes/No), 0.2M Sodium (NaCl) [2]: Yes; Solubility (dissolved Yes/No), DMSO [2]: Yes; Solubility (dissolved Yes/No), 0.154M Sodium (NaCl) [2]: Yes; solubility [3, 26]: > 100 µg/mL; solubility [3, 30]: ≤ 10000 µg/mL; solubility [3, 27]: > 100 µg/mL; solubility [3, 28]: ≤ 10000 µg/mL; Solubility, Ultrapure water [3, 31]: undissolved; solubility [3, 29]: < 100 µg/mL | DMEEMMSEQENPDSSEPVVEDE [SEQ ID NO: 30]
4 | 382 | 387 | 401 | 397 | 412 | 337 | 411 | 404 | 406 | 407 | 412 | 402 | 412 | 415 | 415 | 421 | 433 | 424 | 426 | 445 | solubility [1, 24]: 413 µg/mL; solubility [1, 25]: 419 µg/mL; Solubility (dissolved Yes/No), 0.2M Sodium (NaCl) [2]: Yes; Solubility (dissolved Yes/No), DMSO [2]: Yes; Solubility (dissolved Yes/No), 0.154M Sodium (NaCl) [2]: No; Solubility (dissolved Yes/No), 0.154M Sodium (NaCl) ([2]; listed as SEQ ID NO:32): did not dissolve; Solubility, PBS (pH 7.4) [3]: did not improve solubility; solubility [3, 26]: > 100 µg/mL; solubility [3, 30]: ≤ 10000 µg/mL; solubility [3, 27]: < 100 µg/mL; Solubility, Ultrapure water [3, 31]: undissolved; solubility [3, 29]: < 100 µg/mL | DSQVIVEEVSIFPVEEQQEVPPD [SEQ ID NO: 32]
